Assays:
11beta-HSD1 [1] = target: T1, 11beta-HSD1 (Homo sapiens, UniProt P28845); set-up: host or cells: human subjects (in vivo); details: treatment of humans with carbenoxolone; cited from earlier work
11beta-HSD1 [2] = target: T1, 11beta-HSD1; experiment: Microsome assay: cortisone to cortisol conversion, ELISA detection; type: biochemical; set-up: The cDNA encoding the human 11beta-HSD1 protein was cloned into the expression vector pcDNA3; made in house; host or cells: HEK293 cells (ATCC CRL-1573), transient transfection; microsomal fraction; details: microsomes from HEK293 cells transiently expressing human 11beta-HSD1; 60 min, 37° C.; Cortisone 50-200 nM, NADPH 1 mM; read-out: h 11-beta-HSD 1 IC50
Experimental: The cDNA encoding the human 11beta-HSD1 protein was cloned into the expression vector pcDNA3 ([…]). This construct (for details see Alex Odermatt et al.; J Biol Chem., 1999, Vol. 274, Issue 40, 28762-28770) was used to transiently express the protein in HEK293 cells (ATCC number: CRL-1573, described in Graham, F. L., Smiley, J., Russell, W. C., Nairn, R.; (1977)) using lipofectamine. 48 h after transfection cells were washed twice with ice-cold PBS (Phsophate buffered Saline). To 1 volume of cell suspension in PBS 2 volumes of ice-cold lysis buffer (50 mM Tris; pH7.5; 1 mM EDTA; 100 mM NaCl) were added. The cells were lysed by Potter-homogenization (20 strokes). The resulting homogenate was sonicated with a tip sonicator (10% output; 2×30 sec.) and cleared by a low speed centrifugation (10 min×9000 g; 4° C.). The microsomal fraction was collected by a high speed centrifugation (60 min×110,000 g). […]
Microsomes isolated from HEK293 cells transiently expressing human 11beta-HSD1 (for details see above) were incubated in assay buffer (100 mM NaCl; 1 mM EDTA; 1 mM EGTA; 1 mM MgCl; 250 mM Sucrose; 20 mM Tris pH 7.4; Cortisone 50-200 nM and NADPH 1 mM) together with different concentrations of test substances. […] The amount of Cortisol produced in this assay was determined using a commercially available, ELISA-based Cortisol-detection kit (Distributed by Assay Design, Inc.). […]

T1 sequence (P28845 whole entry): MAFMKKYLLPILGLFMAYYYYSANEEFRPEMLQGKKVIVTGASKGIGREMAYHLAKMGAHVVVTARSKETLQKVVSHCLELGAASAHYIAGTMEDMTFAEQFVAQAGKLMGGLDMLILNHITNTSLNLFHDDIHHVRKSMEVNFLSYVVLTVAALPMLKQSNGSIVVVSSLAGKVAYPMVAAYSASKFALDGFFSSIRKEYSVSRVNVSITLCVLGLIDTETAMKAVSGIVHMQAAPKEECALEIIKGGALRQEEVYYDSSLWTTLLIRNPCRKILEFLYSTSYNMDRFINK

Row | Compound | effect on insulin sensitivity (11beta-HSD1 [1]) | IC50 (11beta-HSD1 [2])
1 | CC1(C)[C@@H](OC(=O)CCC(=O)O)CC[C@]2(C)[C@H]3C(=O)C=C4[C@@H]5C[C@@](C)(C(=O)O)CC[C@]5(C)CC[C@@]4(C)[C@]3(C)CC[C@@H]12 [carbenoxolone] | increase in insulin sensitivity | 
2 | CC(C)c1nccc(NS(=O)(=O)c2ccc3ccccc3c2)n1 [Example 26, Naphthalene-2-sulfonic acid (2-isopropyl-pyrimidin-4-yl)-amide] |  | 167 nM
3 | O=S(=O)(Nc1ccnc(C2CC2)n1)c1ccc(-c2ccccc2)cc1 [Example 5, Biphenyl-4-sulfonic acid (2-cyclopropyl-pyrimidin-4-yl)-amide] |  | 20 nM
